Laboratory results as given in ChEMBL document CHEMBL4811288, “Linderapyrone: A Wnt signal inhibitor isolated from Lindera umbellata” (Bioorg Med Chem Lett, 2021).
Calls of active or inactive are those of the source. No cut-off for these calls is given here.

Key:
[1] = test system: HEK293; experiment: Inhibition of Wnt signalling in HEK293 cells harbouring TCF/beta-catenin luciferase reporter gene assessed as TCF/beta-catenin transcriptional activity at 30 to 60 uM by TOPFlash luciferase assay; assay type: cell-based; conditions: Homo sapiens, dose 30-60 µM
[2] = test system: HT-29; experiment: Cytotoxicity against human HT-29 cells assessed as cell viability at 1.563 to 50 uM measured after 72 hrs by plate reader method; assay type: functional, cell-based; conditions: for IC50: HT-29, 72 h

SMILES	Activity [1]	IC50 [2] [µM]	Activity ([2]; dose 1.563-50 µM)
COc1cc(/C=C/c2ccccc2)oc(=O)c1	inactive		
O=C1[C@H](Cc2ccc(O)cc2)N2C(=O)CCN(C(=O)NCc3ccccc3)[C@H]2CN1Cc1cccc2ccccc12		10.8	
CC(C)[C@H]1CC[C@]2(C)C[C@H]1c1c(cc(/C=C/c3ccccc3)oc1=O)O2	Active		
CC(C)[C@@H]1CC[C@@]2(C)C[C@@H]1c1c(cc(/C=C/c3ccccc3)oc1=O)O2	Active	32.4	
Cc1cc2c(c(=O)o1)[C@H]1C[C@](C)(CC[C@@H]1C(C)C)O2	Active		
Cc1cc(O)cc(=O)o1	inactive		
CC1=CC(=O)C(C(C)C)CC1 (racemic)	inactive		
COc1cc(O)c(C(=O)/C=C/c2ccccc2)c2c1[C@@H]1[C@@H](C(C)C)CC[C@](C)(O)[C@@H]1O2	inactive		
CC(C)[C@H]1CC[C@@]2(C)C[C@@H]1c1c(cc(/C=C/c3cccs3)oc1=O)O2	Active		Active
Cc1cc2c(c(=O)o1)[C@H]1C[C@](C)(CC[C@H]1C(C)C)O2	Active		
CC(C)[C@H]1CC[C@@]2(C)C[C@@H]1c1c(cc(/C=C/c3ccccc3)oc1=O)O2	Active	8.2	
